How the values were obtained:
[1] = Body weight and systemic toxicity in HeLaHL tumor-bearing Nude mice of the xenograft study; format: in vivo; conditions: for animals removed from the study due to >20% body weight loss: 8 mice/group; for average bodyweight change relative to the start of the study: over the course of the study
Procedure: Eight week old, female homozygous Crl:CD1-Foxn1^nu/nu (Nude) mice were obtained from Charles River Laboratories (Wilmington, Mass., USA). Animals were housed 4-5/cage in micro-isolators, with a 12 hr/12 hr light/dark cycle, acclimated for at least 1 week prior to use and fed normal laboratory chow ad libitum. Studies were conducted on animals at 10 weeks of age at implantation. To implant HeLaHL tumor cells into Nude mice, cell cultures were trypsinized as above and centrifuged to pellet the cells. The supernatant was aspirated and the cell pellet was resuspended at a concentration of 1×10^8 cells/mL in non-supplemented media. Cell concentration was determined using a hemocytometer. Using a 27 gauge needle and 1 cc syringe, 0.1 mL of the cell suspension was injected subcutaneously into the flanks of Nude mice. Tumor volumes (V) were calculated by caliper measurement of the width (W), length (L) and thickness (T) of tumors using the following formula: V=0.5236×(L×W×T).
To formulate Compound 1 in 10/18 DRD, stock solutions of Compound 1 were prepared by dissolving the appropriate amounts of the compound in dimethyl sulfoxide (DMSO) by sonication in an ultrasonic water bath. Stock solutions were prepared weekly, stored at −20° C. and diluted fresh each day for dosing. A solution of 20% Cremophor RH40 (polyoxyl 40 hydrogenated castor oil; BASF Corp., Aktiengesellschaft, Ludwigshafen, Germany) in 5% dextrose in water (D5W; Abbott Laboratories, North Chicago, Ill., USA) was also prepared by first heating 100% Cremophor RH40 at 50-60° C. until liquefied and clear, diluting 1:5 with 100% D5W, reheating again until clear and then mixing well. This solution was stored at room temperature for up to 3 months prior to use. To prepare 10/18 DRD formulations for daily dosing, DMSO stock solutions were diluted 1:10 with 20% Cremophor RH40. The final 10/18 DRD formulation for dosing contained 10% DMSO, 18% Cremophor RH40, 3.6% dextrose, 68.4% water and the appropriate amount of test article. Animals were intravenously (i.v.) injected with this formulation at 10 mL per kg body weight on one day each week (on the same day with one of the 3 weekly radiation doses) for a total of 4 doses.
Animals were irradiated using a calibrated ^137Cs gamma-ray (0.662 MeV) Model 30 Mark I irradiator (J. L. Shepherd & Associates, San Fernando, Calif., USA). Tumor-bearing animals were anesthetized for approximately 4 minutes with inhaled isoflurane (IsoFlo, Abbott Laboratories, North Chicago, Ill., USA) delivered on a stream of oxygen at 0.8 L/min and 3% volume/volume on a mobile anesthesia machine (VetEquip, Pleasanton, Calif., USA). […] Anesthetized animals were positioned in the irradiator approximately 2.5 cm in front of the ^137Cs source using a restraint device capable of holding 5 animals (J. L Shepherd & Associates). Ionizing radiation was focused on the subcutaneously implanted HeLaHL tumors through a 1 cm wide collimator (J. L. […]
The ability of Compound 1 to enhance the in vivo anti-tumor activity of ionizing radiation was investigated. Tumor-bearing animals (8 mice/group) were i.v. injected 1 time per week for a total of 4 doses (open arrowheads) with 10 mL/kg of 10/18 DRD vehicle with or without 150 mg/kg Compound 1. Animals were also irradiated 3 times per week for a total of 12 doses (closed arrowheads) with 2 Gy radiation. In the combination treatment group, animals were dosed with Compound 15 hr before being irradiated on days on which both treatments were delivered together. Each group that was not dosed with Compound 1 was instead dosed with 10/18 DRD vehicle as a mock treatment. Each group that was not irradiated was instead anesthetized and restrained as a mock irradiation. Average tumor volumes for each group were determined every 3-5 days (error bars represent +/−SEM). […]

[2] = tested on: HeLaHL human cervical carcinoma tumor cells; assay: Nude mouse xenograft study: in vivo growth of HeLaHL tumors, Compound 1 with or without fractionated ionizing radiation; conditions: HeLaHL xenograft in Nude mice
Procedure: The human cervical carcinoma cancer cell line, HeLaHL, carrying a human Hsp70 promoter-luciferase reporter construct, was obtained from the laboratory of Dr. Richard Morimoto (Northwestern University, Evanston, Ill., USA). The cells were cultured in Dulbecco's Modified Eagle growth media prepared with 10% fetal bovine serum (FBS), 1% 100×HEPES, 1% 100× Penicillin-Streptomycin, 1% 100×L-glutamine, 1% 100× sodium pyruvate and 1% 100×MEM non-essential amino acids. FBS was obtained from American Type Culture Collection (Manassas, Va., USA) and all other reagents were obtained from Invitrogen Corp. (Carlsbad, Calif., USA). Cells that had been cryopreserved in liquid nitrogen were rapidly thawed at 37° C. and transferred to a tissue culture flask containing growth media and then incubated at 37° C. in a 5% CO2 incubator. To expand the cell line, cultures were passaged every 3 to 4 days by washing with 10 mL of room temperature phosphate buffered saline (PBS) and then disassociating cells by adding 5 mL 1× trypsin-EDTA until the cells detached from the surface of the flask. […]
Eight week old, female homozygous Crl:CD1-Foxn1^nu/nu (Nude) mice were obtained from Charles River Laboratories (Wilmington, Mass., USA). […] Cell concentration was determined using a hemocytometer. […] Tumor volumes (V) were calculated by caliper measurement of the width (W), length (L) and thickness (T) of tumors using the following formula: V=0.5236×(L×W×T).
HeLaHL tumors were then permitted to develop in vivo until the majority reached 90-240 mm^3 in tumor volume, which required approximately 2½ weeks following implantation. […] Animals were randomized into treatment groups so that the average tumor volumes of each group were similar at the start of dosing. % T/C values, as a measure of efficacy, were determined as follows: • (i) If ΔT>0: % T/C=(ΔT/ΔC)×100 • (ii) If ΔT<0: % T/C=(ΔT/T0)×100 • (iii) ΔT=Change in average tumor volume between start of dosing and the end of study. • (iv) ΔC=Change in average tumor volume between start of dosing and the end of study. • (v) T0=Average tumor volume at start of dosing. […]

CC(C)c1cc(-c2nnc(O)n2-c2ccc3c(ccn3C)c2)c(O)cc1O [Compound 1, 3-(2,4-dihydroxy-5-isopropyl-phenyl)-4-(1-methyl-indol-5-yl)-5-hydroxy-[1,2,4] triazole]
death due to excessive body weight loss ([1]; 2 Gy radiation combined with 150 mg/kg Compound 1, among the animals removed from the study): One of the animals removed later died on Day 45 | animals removed from the study due to >20% body weight loss ([1]; 2 Gy radiation combined with 150 mg/kg Compound 1, toxicity on Day 42): 2/8 | animals removed from the study due to >20% body weight loss ([1]; 4 Gy radiation combined with 150 mg/kg Compound 1, toxicity on Day 34): 1/8 | average bodyweight change relative to the start of the study ([1]; Compound 1 150 mg/kg plus 2 Gy radiation 3 times per week): 0.4% | average bodyweight change relative to the start of the study ([1]; Compound 1 150 mg/kg plus 3-4 Gy radiation 3 times per week): 1.2% | average bodyweight change relative to the start of the study ([1]; Compound 1 alone, 150 mg/kg i.v. 1 time per week): 3.2% | % T/C value ([2]; 150 mg/kg Compound 1 alone, i.v., 1 time per week, 4 doses, 10/18 DRD, mock irradiation): 28% | % T/C value ([2]; 150 mg/kg Compound 1 i.v. 1 time per week combined with 2 Gy radiation 3 times per week (12 doses), Compound 1 dosed 5 hr before irradiation): −36% | % T/C value ([2]; 150 mg/kg Compound 1 i.v. 1 time per week combined with 3-4 Gy radiation 3 times per week (4 Gy reduced to 3 Gy on Day 40), Compound 1 dosed 5 hr before irradiation): −73%
